Square brackets hold non-standard residues; d marks the D form. Peptide text beside a SMILES is read from it. * marks the point of attachment. Benzoyl(4-OPh(4-CONH2)) = NC(=O)c1ccc(Oc2ccc(C(=O)*)cc2)cc1; NMeI = CC[C@H](C)[C@H](NC)C(=O)O; NMeE = CN[C@@H](CCC(=O)O)C(=O)O; β3hP = O=C(O)C[C@@H]1CCCN1; Dab = NCC[C@H](N)C(=O)O; Ava = NCCCCC(=O)O
Experiments:
[1] = target: MMP-2/MMP-13 (Homo sapiens) (UniProt P08253+P45452); assay: Selectivity ratio of IC50 for recombinant human MMP13 to IC50 for recombinant human MMP2; format: protein assay
Chain of MMP-2/MMP-13 (Homo sapiens) (P08253 whole entry, looked up, other chains not shown): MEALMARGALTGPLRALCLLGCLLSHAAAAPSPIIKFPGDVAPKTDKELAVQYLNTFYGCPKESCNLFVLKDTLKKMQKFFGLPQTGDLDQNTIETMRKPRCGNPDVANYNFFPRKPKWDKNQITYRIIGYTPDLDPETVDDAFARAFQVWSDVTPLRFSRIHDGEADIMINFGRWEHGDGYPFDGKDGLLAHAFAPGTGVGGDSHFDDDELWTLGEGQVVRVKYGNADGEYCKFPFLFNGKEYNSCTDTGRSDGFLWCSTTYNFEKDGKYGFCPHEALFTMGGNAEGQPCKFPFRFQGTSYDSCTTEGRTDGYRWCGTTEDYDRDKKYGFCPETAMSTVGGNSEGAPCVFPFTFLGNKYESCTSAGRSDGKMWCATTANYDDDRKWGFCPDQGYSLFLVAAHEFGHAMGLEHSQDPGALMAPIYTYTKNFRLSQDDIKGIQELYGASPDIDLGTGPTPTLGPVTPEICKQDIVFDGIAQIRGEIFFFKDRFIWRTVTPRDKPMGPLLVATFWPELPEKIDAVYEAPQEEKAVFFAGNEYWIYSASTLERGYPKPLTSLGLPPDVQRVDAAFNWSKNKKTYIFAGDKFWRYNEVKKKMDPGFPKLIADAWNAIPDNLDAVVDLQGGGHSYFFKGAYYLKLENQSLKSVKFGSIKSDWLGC

[2] = organism: Homo sapiens; assay: Selectivity ratio of IC50 for recombinant human MMP12 to IC50 for recombinant human MMP2
[3] = target: Collagenase 3 (Homo sapiens, UniProt P45452); assay: Inhibition of human recombinant MMP13 using MOCAc-Lys-Pro-Leu-Gly-Leu-A2pr(Dnp)-Ala-Arg-N2 as substrate preincubated for 10 to 15 mins followed by substrate addition and measured after 60 to 120 mins by fluorescence based assay
[4] = target: Macrophage metalloelastase (Homo sapiens, UniProt P39900); assay: Inhibition of human recombinant MMP12 using MOCAc-Lys-Pro-Leu-Gly-Leu-A2pr(Dnp)-Ala-Arg-N2 as substrate preincubated for 10 to 15 mins followed by substrate addition and measured after 60 to 120 mins by fluorescence based assay
Chain of Macrophage metalloelastase (P39900 whole entry): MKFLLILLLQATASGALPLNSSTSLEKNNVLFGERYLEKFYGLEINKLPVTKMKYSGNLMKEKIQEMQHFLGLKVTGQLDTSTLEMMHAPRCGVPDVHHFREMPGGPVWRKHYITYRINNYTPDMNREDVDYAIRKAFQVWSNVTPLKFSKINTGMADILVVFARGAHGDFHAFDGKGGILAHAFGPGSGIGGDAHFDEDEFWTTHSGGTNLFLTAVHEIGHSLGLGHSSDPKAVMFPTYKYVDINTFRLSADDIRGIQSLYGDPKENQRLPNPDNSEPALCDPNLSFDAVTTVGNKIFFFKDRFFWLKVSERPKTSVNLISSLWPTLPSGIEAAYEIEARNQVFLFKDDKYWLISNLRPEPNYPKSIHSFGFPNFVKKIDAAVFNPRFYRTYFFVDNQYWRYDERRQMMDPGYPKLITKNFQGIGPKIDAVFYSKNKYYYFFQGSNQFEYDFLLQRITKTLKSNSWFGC

[5] = target: T1, 72 kDa type IV collagenase (Homo sapiens, UniProt P08253); assay: Inhibition of recombinant human MMP2 using MOCAc-Lys-Pro-Leu-Gly-Leu-A2pr(Dnp)-Ala-Arg-N2 as substrate preincubated for 10 to 15 mins followed by substrate addition and measured after 60 to 120 mins by fluorescence based assay
T1 sequence (P08253 whole entry): as the sequence (P08253 whole entry, looked up, other chains not shown) above

[6] = Chemical stability of the compound in phosphate buffer at pH 4 assessed as residual rate incubated for 2 weeks by HPLC analysis; format: physicochemical; conditions: read-out: Stability
[7] = Chemical stability of the compound in phosphate buffer at pH 9 assessed as residual rate incubated for 2 weeks by HPLC analysis; format: physicochemical; conditions: read-out: Stability
[8] = Chemical stability of the compound in phosphate buffer at pH 7.4 assessed as residual rate incubated for 2 weeks by HPLC analysis; format: physicochemical; conditions: read-out: Stability
[9] = target: T1, 72 kDa type IV collagenase; assay: Inhibition of MMP2 (unknown origin)

Row | Molecule | Ratio IC50 [1] | Ratio IC50 [2] | IC50 [3] | IC50 ([4]; read-out: IC50) | IC50 [5] | remaining at 336 h [6] | remaining at 336 h [7] | remaining at 336 h [8] | IC50 [4] | IC50 [9] | Ki [5]
1 | CC[C@H](C)[C@@H](C(=O)N1CCC[C@H]1CC(N)=O)N(C)C(=O)[C@H](CC(C)C)NC(=O)[C@H](CCN)NC(=O)CC[C@@H](NS(=O)(=O)c1ccc(-c2ccccc2)cc1)C(=O)O | 37 | 39 | 230 nM | 240 nM | 6.2 nM |  |  |  |  |  | 
2 | CC[C@H](C)[C@@H](C(=O)N1CCC[C@H]1CC(N)=O)N(C)C(=O)[C@H](CC(C)C)NC(=O)[C@H](CCN)NC(=O)CC[C@@H](NS(=O)(=O)c1ccc(NC(=O)c2ccc(Cl)cc2)cc1)C(=O)O | 370 | 470 | 160 nM | 200 nM | 0.43 nM |  |  |  |  |  | 
3 | CC(C)C[C@H](NC(=O)[C@H](CCN)NC(=O)[C@H](CC(=O)O)NC(=O)[C@H](CCC(=O)O)NC(=O)CCCCNC(=O)c1ccc(Oc2ccc(C(N)=O)cc2)cc1)C(=O)N(C)[C@@H](CCC(=O)O)C(=O)N1CCC[C@H]1CC(N)=O ({Benzoyl(4-OPh(4-CONH2))-Ava}-ED[Dab]L[NMeE][β3hP]-NH2) |  |  |  |  |  | 69.5% | 87.7% | 89% |  |  | 
4 | CC[C@H](C)[C@@H](C(=O)NCCCC(N)=O)N(C)C(=O)[C@H](CC(C)C)NC(=O)[C@H](CCN)NC(=O)CC[C@@H](NS(=O)(=O)c1ccc(NC(=O)c2ccc(Cl)cc2)cc1)C(=O)O | 1800 | 1400 | 280 nM | 230 nM | 0.16 nM |  |  |  |  |  | 
5 | CC[C@H](C)[C@@H](C(=O)NCCCCC(N)=O)N(C)C(=O)[C@H](CC(C)C)NC(=O)[C@@H]1CNCCN1C(=O)CC[C@@H](NS(=O)(=O)c1ccc(NC(=O)c2ccc(Cl)cc2)cc1)C(=O)O | 550 | 120 | 370 nM | 78 nM | 0.67 nM |  |  |  |  |  | 
6 | CC[C@H](C)[C@@H](C(=O)N1CCC[C@H]1CC(N)=O)N(C)C(=O)[C@H](CC(C)C)NC(=O)[C@H](CCN)NC(=O)CC[C@@H](NS(=O)(=O)c1ccc(Oc2ccccc2)cc1)C(=O)O |  |  |  |  | > 10 nM |  |  |  | Not Active |  | 
7 | CC[C@H](C)[C@@H](C(=O)N1CCC[C@H]1CC(N)=O)N(C)C(=O)[C@H](CC(C)C)NC(=O)[C@H](CCN)NC(=O)CC[C@@H](NS(=O)(=O)c1ccc(NC(=O)c2ccccc2)cc1)C(=O)O | 850 | 1300 | 630 nM | 990 nM | 0.74 nM |  |  |  |  |  | 
8 | CC[C@H](C)[C@@H](C(=O)N1CCC[C@H]1CC(N)=O)N(C)C(=O)[C@H](CC(C)C)NC(=O)[C@H](CCN)NC(=O)CC[C@@H](NS(=O)(=O)c1ccc(NC(=O)c2ccc(C(N)=O)cc2)cc1)C(=O)O | 670 | 950 | 280 nM | 400 nM | 0.42 nM |  |  |  |  |  | 
9 | CC[C@H](C)[C@@H](C(=O)NCCC(N)=O)N(C)C(=O)[C@H](CC(C)C)NC(=O)[C@H](CCN)NC(=O)CC[C@@H](NS(=O)(=O)c1ccc(NC(=O)c2ccc(Cl)cc2)cc1)C(=O)O | 1400 | 1200 | 280 nM | 240 nM | 0.2 nM |  |  |  |  |  | 
10 | CC[C@H](C)[C@@H](C(=O)N1CCC[C@H]1CC(N)=O)N(C)C(=O)[C@H](CC(C)C)NC(=O)[C@H](CCN)NC(=O)[C@H](CC(=O)O)NC(=O)[C@H](CCC(=O)O)NC(=O)CCCCNC(=O)c1ccc(Oc2ccc(C(N)=O)cc2)cc1 ({Benzoyl(4-OPh(4-CONH2))-Ava}-ED[Dab]L[NMeI][β3hP]-NH2) |  |  |  |  |  |  |  |  |  | 0.18 nM | 
11 | H-ISYGNDALMP-OH |  |  |  |  |  |  |  |  |  |  | 21 nM
12 | CC(C)C[C@H](NC(=O)[C@@H]1CCCN1C(=O)CC[C@@H](NS(=O)(=O)c1ccc(NC(=O)c2ccc(C(N)=O)cc2)cc1)C(=O)O)C(=O)N(C)[C@@H](CCC(=O)O)C(=O)NCCCCC(N)=O | 160 | 170 | 50 nM | 52 nM | 0.31 nM |  |  |  |  |  | 
13 | CC[C@H](C)[C@@H](C(=O)NCCCCCC(N)=O)N(C)C(=O)[C@H](CC(C)C)NC(=O)[C@H](CCN)NC(=O)CC[C@@H](NS(=O)(=O)c1ccc(NC(=O)c2ccc(Cl)cc2)cc1)C(=O)O | 2800 | 2600 | 280 nM | 260 nM | 0.1 nM |  |  |  |  |  | 
14 | CC[C@H](C)[C@@H](C(=O)NCCCCC(N)=O)N(C)C(=O)[C@H](CC(C)C)NC(=O)[C@@H]1C[C@H](N)CN1C(=O)CC[C@@H](NS(=O)(=O)c1ccc(NC(=O)c2ccc(C(N)=O)cc2)cc1)C(=O)O | 860 | 550 |  |  |  |  |  |  |  |  | 
15 | CC[C@H](C)[C@@H](C(=O)NCCCCC(N)=O)N(C)C(=O)[C@H](CC(C)C)NC(=O)[C@H](CCN)NC(=O)CC[C@@H](NS(=O)(=O)c1ccc(NC(=O)c2ccc(Cl)cc2)cc1)C(=O)O | 2800 | 1600 | 310 nM | 180 nM | 0.11 nM |  |  |  |  |  | 
16 | CC[C@H](C)[C@@H](C(=O)NCCCCC(N)=O)N(C)C(=O)[C@H](CC(C)C)NC(=O)[C@H](CCN)NC(=O)CC[C@@H](NS(=O)(=O)c1ccc(NC(=O)c2ccc(C(N)=O)cc2)cc1)C(=O)O | 3100 | 1900 | 690 nM | 410 nM | 0.22 nM | 98.3% | 47.6% | 88.8% |  |  | 
